Test: Relaxation dynamics of hyperpolarized [1-13C]pyruvate (build-up time Tb, T1)
Format: physicochemical
Description: In addition, the relaxation dynamics of the [1-^13C]pyruvate were also studied.
In addition, relaxation dynamics at earth field and 1.8 T are about the same as a non-fluorinated SABRE catalyst T1=28.9±1.6 s and 66.5±7 s, respectively.
In addition, relaxation dynamics at earth field and 1.8 T are about the same as a non-fluorinated SABRE catalyst T1=9.0±1.9 s and 16.0±1.4 s, respectively.

C[13C](=O)C(=O)O [[1-^13C]pyruvate, Sodium [1-^13C]-pyruvate]
total P13C (bound+free) build-up time Tb (NFBME / deuterated methanol mixture, catalyst of Example 4): 3.0 ± 0.8 s
total P13C (bound+free) build-up time Tb (methanol, catalyst of Example 4, DMSO co-ligand): 6.6 ± 3.0 s
